Source: patent US4229584A, “Ureylenebis(anionic substituted phenylene carbonyl)imino naphthalene sulfonic acids and naphthalene carboxylic acids and their salts” (American Cyanamid Company, priority 1978, dated 1980)
Counter-ions that a name gives are not always drawn. Like-named read-outs stand apart in the source and are kept apart here.

Columns and labels:
whole complement = assay: In vivo complement inhibition in guinea pigs (whole complement of serum, capillary tube assay); design: species or system guinea pig; details: for change in vivo at 200 mg/kg: Cavia porcellus, ip
Excerpt: (§1) An active inhibitor protects C2 from C1 and C4; (ii) Test, Code 035 (C3-C9 inhibitor)--This test determines the ability of the late components of human complement (C3-C9) to lyse EAC 142 in the presence of appropriate dilutions of the test compound. An active inhibitor protects EAC 142 from lysis by human C3-C9; (iii) Test, Code 036 (C-Shunt inhibitor)--In this test human erythrocytes rendered fragile are lysed in autologous serum via the shunt pathway activated by cobra venom factor in the presence of appropriate dilutions of the test compound. Inhibition of the shunt pathway results in failure of lysis; (iv) Forssman Vasculitis Test--Here, the well known complement dependent lesion, Forssman vasculitis, is produced in guinea pigs by intradermal injection of rabbit anti-Forssman antiserum. The lesion is measured in terms of diameter, edema and hemorrhage and the extent to which a combined index of these is inhibited by prior intraperitoneal injection of the test compound at 200 mg/kg is then reported, unless otherwise stated; (v) Forssman Shock Test--Lethal shock is produced in guinea pigs by an i.v. injection of anti-Forssman antiserum and the harmonic mean death time of treated guinea pigs is compared with that of simultaneous controls; (vi) Complement Level Reduction Test--In this test, the above dosed guinea pigs, or others, are bled for serum and the complement level is determined in undiluted serum by the capillary tube method of U.S. Pat. No. 3,876,376 and compared to undosed control guinea pigs; and (vii) Cap 50 Test--Here, appropriate amounts of the test compound are added to a pool of guinea pig serum in vitro, after which the undiluted serum capillary tube assay referred to above is run. The concentration of compound inhibiting 50% is reported.
With reference to Table I, guinea pigs weighing about 300 g were dosed intravenously (i.v.) or intraperitoneally (i.p.) with 200 mg/kg of the test compound dissolved in saline and adjusted to pH 7-8. […] The serum was tested for whole complement using the capillary tube assay. Percent inhibition was calculated by comparison with simultaneous controls. The results appear in Table I together with results of tests, Code 026, 035, 036, Cap 50, percent inhibition and Forssman shock.

human C1 = biological target: T1, human C1 (Homo sapiens, UniProt P09871); assay: Test, Code 026 (C1 inhibitor): protection of fluid phase human C2 from activated human C1; type: biochemical; details: activity in wells, twofold serial dilution; higher well number indicates higher activity
T1 construct: substrate fluid phase human C2, in presence of C4
Excerpt: as §1
(§2) **Activity in wells, a serial dilution assay. Higher well number indicate
(§3) higher activity. The serial dilutions are twofold.

[1] = system: late components of human complement (C3-C9); assay: Test, Code 035 (C3-C9 inhibitor): lysis of EAC 142 by late components of human complement; type: cell-based; details: activity in wells, twofold serial dilution; higher well number indicates higher activity
Excerpt: as §1, §2, §3

shunt pathway = assay: Test, Code 036 (C-Shunt inhibitor): lysis of human erythrocytes in autologous serum via shunt pathway activated by cobra venom factor; type: cell-based; details: activity in wells, twofold serial dilution; higher well number indicates higher activity
Excerpt: as §1, §2, §3

[2] = 0.5 h, intraperitoneal, 200 mg/kg, 30 mins., read-out: In Vivo Activity (Guinea Pig) % Inhibition Intraperitoneal 30 mins.
[3] = 1 h, intraperitoneal, 200 mg/kg, 60 mins., read-out: In Vivo Activity (Guinea Pig) % Inhibition Intraperitoneal 60 mins.
[4] = 2 h, intraperitoneal, 200 mg/kg, 120 mins., read-out: In Vivo Activity (Guinea Pig) % Inhibition Intraperitoneal 120 mins.
[5] = 0.5 h, read-out: In Vivo Activity (Guinea Pig) % Inhibition Intraperitoneal 30 mins.
[6] = 1 h, read-out: In Vivo Activity (Guinea Pig) % Inhibition Intraperitoneal 60 mins.
[7] = 2 h, read-out: In Vivo Activity (Guinea Pig) % Inhibition Intraperitoneal 120 mins.

T1 sequence (P09871 16-688): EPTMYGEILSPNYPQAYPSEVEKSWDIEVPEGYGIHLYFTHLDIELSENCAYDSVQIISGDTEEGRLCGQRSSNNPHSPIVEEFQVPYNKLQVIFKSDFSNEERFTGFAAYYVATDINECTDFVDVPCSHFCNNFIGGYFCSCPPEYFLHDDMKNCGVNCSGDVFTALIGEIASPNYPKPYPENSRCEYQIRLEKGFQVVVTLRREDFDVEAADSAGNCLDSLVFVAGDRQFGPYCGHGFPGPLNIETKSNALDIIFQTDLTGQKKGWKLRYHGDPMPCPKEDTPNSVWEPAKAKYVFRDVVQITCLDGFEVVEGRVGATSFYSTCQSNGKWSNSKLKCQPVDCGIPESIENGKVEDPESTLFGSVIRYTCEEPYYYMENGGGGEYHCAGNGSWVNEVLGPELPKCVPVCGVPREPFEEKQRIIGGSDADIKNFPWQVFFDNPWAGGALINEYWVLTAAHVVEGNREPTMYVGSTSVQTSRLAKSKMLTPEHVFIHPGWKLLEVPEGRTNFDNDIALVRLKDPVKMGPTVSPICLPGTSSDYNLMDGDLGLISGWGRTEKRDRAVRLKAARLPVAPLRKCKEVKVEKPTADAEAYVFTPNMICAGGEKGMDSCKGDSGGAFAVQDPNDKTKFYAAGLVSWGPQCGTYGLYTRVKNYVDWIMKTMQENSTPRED
T1 sequence (P00736 18-705 partner): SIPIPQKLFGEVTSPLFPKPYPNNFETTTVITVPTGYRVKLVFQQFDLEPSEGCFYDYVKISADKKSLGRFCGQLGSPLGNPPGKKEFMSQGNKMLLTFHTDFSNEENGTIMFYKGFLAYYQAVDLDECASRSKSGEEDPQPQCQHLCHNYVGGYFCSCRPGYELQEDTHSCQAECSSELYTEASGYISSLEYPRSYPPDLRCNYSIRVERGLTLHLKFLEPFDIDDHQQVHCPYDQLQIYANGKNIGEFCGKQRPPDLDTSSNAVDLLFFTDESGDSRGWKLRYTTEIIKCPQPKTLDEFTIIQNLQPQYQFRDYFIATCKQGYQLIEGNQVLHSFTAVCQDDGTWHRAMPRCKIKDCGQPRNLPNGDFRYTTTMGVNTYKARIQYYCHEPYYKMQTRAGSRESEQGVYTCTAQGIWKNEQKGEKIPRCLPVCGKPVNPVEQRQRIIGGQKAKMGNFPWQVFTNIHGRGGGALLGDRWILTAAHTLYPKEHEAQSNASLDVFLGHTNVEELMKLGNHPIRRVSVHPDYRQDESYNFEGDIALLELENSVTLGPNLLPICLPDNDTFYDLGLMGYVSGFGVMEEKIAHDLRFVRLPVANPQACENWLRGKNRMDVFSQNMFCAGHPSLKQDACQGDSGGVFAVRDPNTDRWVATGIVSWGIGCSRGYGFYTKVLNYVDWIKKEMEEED
T1 sequence (P02745 23-245 partner): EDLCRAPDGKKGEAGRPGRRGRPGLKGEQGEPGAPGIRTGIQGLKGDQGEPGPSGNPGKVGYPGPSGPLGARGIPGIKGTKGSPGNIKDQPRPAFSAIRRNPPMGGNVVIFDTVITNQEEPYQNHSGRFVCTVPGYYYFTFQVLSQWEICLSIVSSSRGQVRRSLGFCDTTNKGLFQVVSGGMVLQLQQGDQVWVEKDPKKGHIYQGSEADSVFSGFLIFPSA
T1 sequence (P02746 28-253 partner): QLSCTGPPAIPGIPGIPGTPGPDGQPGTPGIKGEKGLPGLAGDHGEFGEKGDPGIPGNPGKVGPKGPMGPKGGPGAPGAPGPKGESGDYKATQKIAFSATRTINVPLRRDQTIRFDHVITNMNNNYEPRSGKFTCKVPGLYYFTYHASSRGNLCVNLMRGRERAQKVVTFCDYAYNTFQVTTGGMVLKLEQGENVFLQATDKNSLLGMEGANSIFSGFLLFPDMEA
T1 sequence (P02747 29-245 partner): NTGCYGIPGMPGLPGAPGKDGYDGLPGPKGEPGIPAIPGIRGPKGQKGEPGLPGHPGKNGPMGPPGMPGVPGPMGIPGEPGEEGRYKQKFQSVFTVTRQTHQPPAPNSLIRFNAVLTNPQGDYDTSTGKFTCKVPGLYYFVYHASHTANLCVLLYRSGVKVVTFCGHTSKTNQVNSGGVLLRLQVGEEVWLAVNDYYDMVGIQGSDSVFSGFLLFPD

SMILES | change in vivo at 200 mg/kg (whole complement; [2]) | change in vivo at 200 mg/kg (whole complement; [3]) | change in vivo at 200 mg/kg (whole complement; [4]) | In Vivo Activity (Guinea Pig) % Inhibition Intravenous 2 mins. (whole complement; 200 mg/kg) | In Vivo Activity (Guinea Pig) % Inhibition Intravenous 30 mins. (whole complement; 200 mg/kg, 30 mins.) | In Vivo Activity (Guinea Pig) % Inhibition Intravenous 120 mins. (whole complement; 200 mg/kg, 120 mins.) | change in vivo at 200 mg/kg (whole complement; [5]) | change in vivo at 200 mg/kg (whole complement; [6]) | change in vivo at 200 mg/kg (whole complement; [7]) | C1 026* Wells (human C1) | C-Late 035* Wells [1] | Shunt Inhibition 036* Wells (shunt pathway)
O=C(Nc1ccc(C(=O)Nc2cc(S(=O)(=O)O)cc3cc(S(=O)(=O)O)cc(S(=O)(=O)O)c23)c(S(=O)(=O)O)c1)Nc1ccc(C(=O)Nc2cc(S(=O)(=O)O)cc3cc(S(=O)(=O)O)cc(S(=O)(=O)O)c23)c(S(=O)(=O)O)c1 [8,8'-{Ureylenebis{[(2-sulfo-4,1-phenylene)carbonyl]imino}}-1,3,6-naphthalenetrisulfonic acid octasodium salt] | 4% | 17% | -8% | -85% | -53% | -24% |  |  |  |  |  | 
O=C(Nc1ccc(C(=O)Nc2cc(S(=O)(=O)[O-])cc3ccc(S(=O)(=O)[O-])cc23)c(S(=O)(=O)[O-])c1)Nc1ccc(C(=O)Nc2cc(S(=O)(=O)[O-])cc3ccc(S(=O)(=O)[O-])cc23)c(S(=O)(=O)[O-])c1.[Na+].[Na+].[Na+].[Na+].[Na+].[Na+] [4,4'-{Ureylenebis[(2-sulfo-4,1-phenylenecarbonyl)imino]}-di-2,6-naphthalenedisulfonic acid hexasodium salt] |  |  |  |  |  |  | -3% | -4% | -11% | +5 Wells | N | N
O=C(Nc1ccc(C(=O)Nc2cc(S(=O)(=O)[O-])cc3cc(S(=O)(=O)[O-])cc(S(=O)(=O)[O-])c23)cc1)Nc1ccc(C(=O)Nc2cc(S(=O)(=O)[O-])cc3cc(S(=O)(=O)[O-])cc(S(=O)(=O)[O-])c23)cc1.[Na+].[Na+].[Na+].[Na+].[Na+].[Na+] [8,8'-[Ureylenebis(4,1-phenylenecarbonylimino)]di-1,3,6-naphthalenetrisulfonic acid hexasodium salt] |  |  |  | -71% | -28% | -16% | -18% | -21% | -33% | +4 Wells |  | 
O=C(Nc1ccc(C(=O)Nc2ccc(S(=O)(=O)[O-])c3cc(S(=O)(=O)[O-])cc(S(=O)(=O)[O-])c23)c(S(=O)(=O)[O-])c1)Nc1ccc(C(=O)Nc2ccc(S(=O)(=O)[O-])c3cc(S(=O)(=O)[O-])cc(S(=O)(=O)[O-])c23)c(S(=O)(=O)[O-])c1.[Na+].[Na+].[Na+].[Na+].[Na+].[Na+].[Na+].[Na+] [8,8'-{Ureylenebis[(2-sulfo-4,1-phenylenecarbonyl)imino]}di-1,3,5-naphthalenetrisulfonic acid octasodium salt] |  |  |  | -89% | -45% | -29% | -32% | -31% | -51% |  | +1 Wells | 
O=C(Nc1ccc(C(=O)Nc2cc3ccccc3cc2C(=O)[O-])c(S(=O)(=O)[O-])c1)Nc1ccc(C(=O)Nc2cc3ccccc3cc2C(=O)[O-])c(S(=O)(=O)[O-])c1.[Na+].[Na+].[Na+].[Na+] [3,3'-{Ureylenebis[(2-sulfo-4,1-phenylene)carbonylimino]}di-2-naphthoic acid tetrasodium salt] |  |  |  |  |  |  |  |  |  | N | +3 Wells | N
O=C(Nc1cc(C(=O)O)cc(C(=O)Nc2cc(S(=O)(=O)O)cc3cc(S(=O)(=O)O)cc(O)c23)c1)Nc1cc(C(=O)O)cc(C(=O)Nc2cc(S(=O)(=O)O)cc3cc(S(=O)(=O)O)cc(O)c23)c1 [3,3'-(Carbonyldiimino)bis[5-[(8-hydroxy-3,6-disulfo-1-naphthalenyl)aminocarbonyl]]benzoic acid tetrasodium salt] |  |  | -69% |  |  |  |  |  |  | +6 Wells |  | 
O=C(Nc1ccc(C(=O)Nc2cc(S(=O)(=O)O)cc3cc(S(=O)(=O)O)cc(O)c23)c(S(=O)(=O)O)c1)Nc1ccc(C(=O)Nc2cc(S(=O)(=O)O)cc3cc(S(=O)(=O)O)cc(O)c23)c(S(=O)(=O)O)c1 [4,4'-{Ureylenebis[(2-sulfo-4,1-phenylenecarbonyl)imino]}bis-[5-hydroxy-2,7-naphthalenedisulfonic acid]hexasodium salt] | -35% | -41% | -74% | -98% | -81% | -63% |  |  |  |  |  | 
O=C(Nc1ccc(C(=O)Nc2cc(S(=O)(=O)[O-])cc3cc(S(=O)(=O)[O-])ccc23)c(S(=O)(=O)[O-])c1)Nc1ccc(C(=O)Nc2cc(S(=O)(=O)[O-])cc3cc(S(=O)(=O)[O-])ccc23)c(S(=O)(=O)[O-])c1.[Na+].[Na+].[Na+].[Na+].[Na+].[Na+] [4,4'-{Ureylenebis[(2-sulfo-4,1-phenylenecarbonyl)imino]}-di-2,7-naphthalenedisulfonic acid hexasodium salt] |  |  |  |  |  |  |  |  |  |  |  | N
Cc1ccc(NC(=O)Nc2ccc(C)c(C(=O)Nc3ccc(S(=O)(=O)[O-])c4cc(S(=O)(=O)[O-])cc(O)c34)c2)cc1C(=O)Nc1ccc(S(=O)(=O)[O-])c2cc(S(=O)(=O)[O-])cc(O)c12.[Na+].[Na+].[Na+].[Na+] [4,4'-{Ureylenebis[(6-methyl-3,1-phenylenecarbonyl)imino]}-bis[5-hydroxy-1,7-naphthalenedisulfonic acid], tetrasodium salt] |  |  |  |  |  |  |  |  |  |  |  | +2 Wells
O=C(Nc1ccc(S(=O)(=O)[O-])c(C(=O)Nc2cc(S(=O)(=O)[O-])cc3cc(S(=O)(=O)[O-])cc(S(=O)(=O)[O-])c23)c1)Nc1ccc(S(=O)(=O)[O-])c(C(=O)Nc2cc(S(=O)(=O)[O-])cc3cc(S(=O)(=O)[O-])cc(S(=O)(=O)[O-])c23)c1.[Na+].[Na+].[Na+].[Na+].[Na+].[Na+].[Na+].[Na+] [8,8'-[Carbonylbis[imino[(-6-sulfo-3,1-phenylene)]carbonylimino]]-bis-1,3,6-naphthalenetrisulfonic acid octasodium salt] |  |  |  |  |  |  | -23% | -58% | -71% | +7 Wells |  | +1 Wells
O=C(Nc1cc(C(=O)O)cc(C(=O)Nc2ccc(S(=O)(=O)O)c3cc(S(=O)(=O)O)cc(O)c23)c1)Nc1cc(C(=O)O)cc(C(=O)Nc2ccc(S(=O)(=O)O)c3cc(S(=O)(=O)O)cc(O)c23)c1 [3,3'-Ureylenebis{5-[(8-hydroxy-4,6-disulfo-1-naphthenyl)aminocarbonyl]-benzoic acid}tetrasodium salt] |  |  | -94% |  |  |  |  |  |  | +4 Wells |  | +2 Wells
O=C(Nc1ccc(C(=O)Nc2cccc3cc(S(=O)(=O)O)cc(O)c23)c(S(=O)(=O)O)c1)Nc1ccc(C(=O)Nc2cccc3cc(S(=O)(=O)O)cc(O)c23)c(S(=O)(=O)O)c1 [5,5'-{Ureylenebis[(2-sulfo-4,1-phenylenecarbonyl)imino]}-bis[4-hydroxy-2-naphthalenesulfonic acid]tetrasodium salt] | -26% | 0% | -58% |  |  |  |  |  |  | +2 Wells |  | 
